The target of data set [1] is T1, recombinant hRIPK2 protein (kinase domain aa 1-299-His-tagged) (Homo sapiens, UniProt O43353).
T1 construct: kinase domain aa 1-299-His-tagged; purchased Life Technologies PR7829A
As to the kind of experiment: RIPK2 AlphaLISA assay (displacement of bead-bound CZC-8004 from hRIPK2). Format: binding. Conditions: recombinant hRIPK2 kinase domain 10 nM, 2 h at 23° C. A digest of the protocol:
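His-tagged kinase domain (10 nM, as diluted) was mixed with compound (0.8% DMSO), acceptor beads bearing the probe CZC-8004 and Ni2+ donor beads. After 2 h at 23 °C, AlphaLISA signal was read. Loss of signal reflects displacement of the probe from RIPK2.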
A general note: Alpha assays give light when donor and acceptor beads are brought close together.

Data set [2] can be described thus: Human protein binding free fraction (Assay A, RED plate equilibrium dialysis). Format: in vitro ADME. As to conditions: plasma, read-out: Assay A: Human protein binding free fraction (F %). As to the method:
Human protein binding protocol: Compound was added to plasma or brain homogenate and incubated at 2 μM at 37° C. in the RED plate (Thermo n° 96009, cut-off 8000 Da) against PBS buffer. After 4 h, aliquots of plasma and buffer side were transferred to a well containing acetonitrile with an internal standard. After protein precipitation, samples were centrifuged and supernatant was injected in LC/MS/MS. Standards were prepared in the same matrix and treated as samples.
A fraction unbound (fuplasma) was determined for each plasma sample as follows: […]

Data set [3] can be described thus: Human Clint, microsomal metabolic stability (Assay B). The data set is classed as in vitro ADME. Conditions: pooled liver microsomes 0.5 mg/mL, 0.5 μM compound, NADPH. As to the method:
Human Clint protocol: Pooled liver microsomes (Sekisui Xenotech) were diluted at 0.5 mg/mL in 50 mM phosphate buffer, pH 7.4 then pre-incubated with 0.5 μM […] for 7 min at 37° C. The reactions were initiated by adding prewarmed cofactor (0.44 mM NADPH). Aliquots of samples were taken at 0, 5, 10, 20 and 45 min and the reactions stopped by addition of cold acetonitrile containing an internal standard. Samples were centrifuged at 3000 g for 10 min at 4° C. and then supernatants were analyzed by LC/MS/MS for the amount of parent compound remaining.
A general note: Microsomes from liver hold many membrane-bound enzymes, among them those of drug oxidation.

In data set [4] the target is T2, hERG potassium channel (Homo sapiens, UniProt Q12809).
T2 construct: host or cells: HEK (hERG-HEK stably transfected cell line)
As to the kind of experiment: hERG q-patch assay (Assay C, Sophion Qube automated electrophysiology). The data set is classed as cell-based. As to conditions: read-out: Assay C: hERG q-patch inhibition IC50. As to the method: hERG q-patch assay protocol: The potential for test compound to inhibit the hERG potassium channel was determined using the Charles River ChanTest® hERG-HEK stably transfected cell line on the Sophion Qube automated electrophysiology platform. The assay was performed at room temperature and recordings of the hERG tail current from a population of cells were made using multi-hole QChips.

Each structure is given as a SMILES string.

These results are taken from patent publication US12630563B2, “Macrocyclic RIP2-kinase inhibitors” (Oncodesign S.A., priority 2020, dated 2026).

T1 sequence (O43353 1-299): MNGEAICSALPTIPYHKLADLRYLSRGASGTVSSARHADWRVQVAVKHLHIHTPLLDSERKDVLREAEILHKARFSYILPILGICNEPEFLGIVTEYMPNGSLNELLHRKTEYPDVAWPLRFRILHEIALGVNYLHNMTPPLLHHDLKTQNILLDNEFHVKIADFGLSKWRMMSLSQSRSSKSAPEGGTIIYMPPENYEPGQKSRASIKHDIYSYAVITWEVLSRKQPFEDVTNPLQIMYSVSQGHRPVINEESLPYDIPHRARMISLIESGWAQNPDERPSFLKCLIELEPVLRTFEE
T2 sequence (Q12809 whole entry): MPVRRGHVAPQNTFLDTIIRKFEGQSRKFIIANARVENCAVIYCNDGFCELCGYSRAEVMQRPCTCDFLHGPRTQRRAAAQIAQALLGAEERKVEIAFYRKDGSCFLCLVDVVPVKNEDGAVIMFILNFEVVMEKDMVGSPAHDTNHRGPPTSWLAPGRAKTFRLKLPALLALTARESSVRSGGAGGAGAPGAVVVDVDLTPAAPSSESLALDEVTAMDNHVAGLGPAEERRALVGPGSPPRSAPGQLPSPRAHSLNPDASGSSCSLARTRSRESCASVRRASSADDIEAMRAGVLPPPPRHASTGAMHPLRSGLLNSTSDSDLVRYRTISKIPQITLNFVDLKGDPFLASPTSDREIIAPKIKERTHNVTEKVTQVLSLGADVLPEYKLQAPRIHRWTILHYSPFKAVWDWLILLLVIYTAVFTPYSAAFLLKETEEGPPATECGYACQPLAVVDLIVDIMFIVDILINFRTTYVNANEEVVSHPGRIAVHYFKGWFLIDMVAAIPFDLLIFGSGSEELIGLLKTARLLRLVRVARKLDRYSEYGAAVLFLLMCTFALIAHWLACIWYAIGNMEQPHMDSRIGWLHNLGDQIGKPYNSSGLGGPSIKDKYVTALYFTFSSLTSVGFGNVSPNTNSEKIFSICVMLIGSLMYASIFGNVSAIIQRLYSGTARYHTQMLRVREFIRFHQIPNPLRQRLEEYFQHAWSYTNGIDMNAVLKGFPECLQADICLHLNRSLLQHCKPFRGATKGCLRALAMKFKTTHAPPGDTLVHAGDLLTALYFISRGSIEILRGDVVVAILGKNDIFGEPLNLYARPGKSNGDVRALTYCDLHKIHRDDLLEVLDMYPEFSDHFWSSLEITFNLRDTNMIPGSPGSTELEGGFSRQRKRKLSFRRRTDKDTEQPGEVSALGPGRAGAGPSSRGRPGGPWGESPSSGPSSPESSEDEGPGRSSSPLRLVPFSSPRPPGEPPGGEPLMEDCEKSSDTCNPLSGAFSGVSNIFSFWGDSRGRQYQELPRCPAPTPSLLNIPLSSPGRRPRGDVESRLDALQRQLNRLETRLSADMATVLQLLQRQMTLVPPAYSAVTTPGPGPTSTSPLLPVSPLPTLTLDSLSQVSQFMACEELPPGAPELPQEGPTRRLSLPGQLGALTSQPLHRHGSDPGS

In general, IC50 refers to the concentration needed to halve the response being measured. In the case of `O=C1[C@H](OCCO)C[C@H]2COc3ccn4ncc(c4n3)-c3cc(F)cc(c3)NCCN12` [Example 79, (12R,14S)-4-fluoro-12-(2-hydroxyethoxy)-16-oxa-7,10,20,21,24-pentaazapentacyclo[15.5.2.1^2,6.0^1°,^14.0^2°,^23]pentacosa-1(23),2(25),3,5,17(24),18,21-heptaen-11-one], the concentration for half-maximal inhibition (IC50) in data set [1] was less than 10 nM; in data set [4] it was 1000 to 10000 nM. Moreover, the fraction unbound at 4 h, 2 μM in data set [2] is greater than 0.01. Moreover, the “Assay B: Human Clint (hCl)” value in data set [3] was “+++ (+++ indicates hCl equal or below 5 ug/min/mg prot)”.

For `CO[C@@H]1C[C@H]2COc3ccn4ncc(c4n3)-c3cc(F)cc(c3)NCCN2C1=O` [Example 3, (12R,14S)-4-fluoro-12-methoxy-16-oxa-7,10,20,21,24-pentaazapentacyclo[15.5.2.1^2,6.0^10,^14.0^20,^23] pentacosa-1(23),2(25),3,5,17(24),18,21-heptaen-11-one], the IC50 in data set [1] was less than 10 nM; in data set [4], greater than 10000 nM. Moreover, in data set [2], the fraction unbound at 4 h, 2 μM was greater than 0.01. In addition, in data set [3], the “Assay B: Human Clint (hCl)” value is reported as “++ (++ indicates hCl between 6-18 ug/min/mg prot)”.

As to `COc1cn2ncc3c2nc1OC[C@@H]1C[C@@H](OC)C(=O)N1CCNc1cc(F)cc-3c1` [Example 1, (12R,14S)-4-fluoro-12,18-dimethoxy-16-oxa-7,10,20,21,24-pentaazapentacyclo[15.5.2.1^2,6.0^1°,^14.0^2°,^23]pentacosa-1(23),2(25),3,5,17(24),18,21-heptaen-11-one], the IC50 in data set [1] is less than 10 nM; in data set [4], greater than 10000 nM. Moreover, the “Assay B: Human Clint (hCl)” value in data set [3] is given as “+++ (+++ indicates hCl equal or below 5 ug/min/mg prot)”.

Regarding `CO[C@@H]1C[C@H]2COc3ccn4ncc(c4n3)-c3cc(cc(C(C)=O)c3)NCCN2C1=O` [Example 54, (12R,14S)-4-acetyl-12-methoxy-16-oxa-7,10,20,21,24-pentaazapentacyclo[15.5.2.1^2,6.0^1°,^14.0^2°,^23]pentacosa-1(23),2,4,6(25),17(24),18,21-heptaen-11-one], the IC50 was less than 10 nM in data set [1] and greater than 10000 nM in data set [4]. The fraction unbound at 4 h, 2 μM in data set [2] was greater than 0.01. Besides, the “Assay B: Human Clint (hCl)” value in data set [3] was “++ (++ indicates hCl between 6-18 ug/min/mg prot)”.

Regarding `CO[C@@H]1C[C@H]2COc3nc4c(cnn4cc3-c3cnn(C)c3)-c3cc(F)cc(c3)NCCN2C1=O` [Example 67, (12R,14S)-4-fluoro-12-methoxy-18-(1-methyl-1H-pyrazol-4-yl)-16-oxa-7,10,20,21,24-pentaazapentacyclo[15.5.2.1^2,6.0^1°,^14.0^2°,^23]pentacosa-1(23),2(25),3,5,17(24), 18,21-heptaen-11-one], the IC50 was less than 10 nM in data set [1] and greater than 10000 nM in data set [4]. Also, the “Assay B: Human Clint (hCl)” value in data set [3] was “+++ (+++ indicates hCl equal or below 5 ug/min/mg prot)”.
